In experiment [1] the target is T1, DGKα (Homo sapiens, UniProt P23743). The note with it: literature report; cited from earlier work.
Target sequence in this assay (P23743 whole entry, species assumed): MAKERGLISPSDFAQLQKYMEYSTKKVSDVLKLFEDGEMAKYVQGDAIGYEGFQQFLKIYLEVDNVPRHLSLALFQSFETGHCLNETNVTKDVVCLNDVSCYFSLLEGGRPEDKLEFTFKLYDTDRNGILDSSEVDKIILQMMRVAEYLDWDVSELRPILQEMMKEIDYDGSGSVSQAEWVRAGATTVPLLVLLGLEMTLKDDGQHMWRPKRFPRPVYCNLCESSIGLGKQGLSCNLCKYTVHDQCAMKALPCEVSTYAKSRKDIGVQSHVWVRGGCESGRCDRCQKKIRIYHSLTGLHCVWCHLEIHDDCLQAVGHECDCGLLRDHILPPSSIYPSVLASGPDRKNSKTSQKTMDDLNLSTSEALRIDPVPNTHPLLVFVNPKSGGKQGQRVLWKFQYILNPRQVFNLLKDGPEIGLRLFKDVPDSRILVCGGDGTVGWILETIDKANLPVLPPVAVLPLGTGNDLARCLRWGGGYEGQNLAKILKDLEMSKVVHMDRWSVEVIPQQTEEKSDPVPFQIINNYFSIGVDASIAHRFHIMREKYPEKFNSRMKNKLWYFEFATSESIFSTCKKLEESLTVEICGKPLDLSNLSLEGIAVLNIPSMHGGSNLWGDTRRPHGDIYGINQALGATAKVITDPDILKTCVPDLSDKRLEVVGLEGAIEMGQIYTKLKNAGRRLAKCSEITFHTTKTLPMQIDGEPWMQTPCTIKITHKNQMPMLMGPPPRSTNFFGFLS
The target of experiment [2] is T1, DGKα. Briefly: Human DGKα kinase activity inhibition assay (ADP-Glo). The experiment is classed as biochemical. Also on record: made in house; host or cells: Sf9 insect cells, baculovirus. The settings on record: in vitro, C-terminally FLAG-tagged recombinant full-length human DGKα, 1,2-dioleoyl-sn-glycerol substrate, ADP-Glo readout. How it is done:
Human DGKα Kinase Activity Inhibition Assay. Human DGKα inhibitory activity of compounds of the present invention was quantified employing the human DGKα kinase activity assay as described in the following paragraphs. In essence, the enzyme activity was measured by quantification of the adenosine-di-phosphate (ADP) generated as a co-product of the enzyme reaction via the “ADP-Glo™ Kinase Assay” kit from the company Promega. This detection system works as follows: In a first step the ATP not consumed in the kinase reaction is quantitatively converted to […] (“ADP-Glo-reagent”), then the adenylate cyclase is stopped and the ADP generated in the kinase reaction converted to ATP, which subsequently generates in a luciferase-based reaction a glow-luminescence signal (“Kinase Detection Reagent”). C-terminally FLAG-tagged, recombinant full-length human DGKα (expressed in baculovirus infected insect cells, purified using anti-Flag pulldown and size exclusion chromatography as described below, DGKa_hu_1) was used as enzyme. As substrate for the kinase 1,2-dioleoyl-sn-glycerol, reconstituted in octyl-β-D-glucopyranoside micelles, was used. For the preparation of the micelles, 1 volume of a 16.1 mM solution of 1,2-dioleoyl-sn-glycerol (Avanti, Cat. #08001-25G) in chloroform was slowly evaporated using a nitrogen stream. Subsequently, 22.55 volumes of a 510 mM solution of octyl-β-D-glucopyranoside (Sigma-Aldrich, Cat. #08001-10G) in 50 mM MOPS buffer (pH 7.4) were added, and the mixture was sonicated in an ultrasonic bath for 20 s. Then 35 volumes of 50 mM MOPS buffer (pH 7.4) were added to yield a solution of 0.28 mM 1,2 dioleoyl-sn-glycerol and 200 mM octyl-β-D-glucopyranoside, which was aliquoted, flash-frozen in liquid nitrogen, and stored at −20° C. until use. For each experiment, a fresh aliquot was quickly thawed and diluted 24-fold with aqueous assay buffer (described below) containing 95.7 μM adenosine triphosphate (Promega) to yield a 1.67-fold concentrated substrate solution. For the assay 50 nl of a 100-fold concentrated solution of the test compound in dimethyl sulfoxide (DMSO, Sigma) was pipetted into either a white 1536-well or a white low-volume 384-well microtiter plate (both Greiner Bio-One, Frickenhausen, Germany). […] The concentration of DGK a was adjusted depending of the activity of the enzyme lot and was chosen appropriate to have the assay in the linear range, a typical concentration is about 0.1 nM. The reaction was stopped by the addition of 2.5 μl of “ADP-Glo-reagent” (1 to 1.5 diluted with water) and the resulting mixture was incubated at 22° C. for 1 h to convert the ATP no t consumed in the kinase reaction completely to […]. […] The amount of emitted light was taken as a measure for the amount of ADP generated and thereby for the activity of the DGKα.
Target sequence in this assay (P23743 with tags, fused parts or gaps): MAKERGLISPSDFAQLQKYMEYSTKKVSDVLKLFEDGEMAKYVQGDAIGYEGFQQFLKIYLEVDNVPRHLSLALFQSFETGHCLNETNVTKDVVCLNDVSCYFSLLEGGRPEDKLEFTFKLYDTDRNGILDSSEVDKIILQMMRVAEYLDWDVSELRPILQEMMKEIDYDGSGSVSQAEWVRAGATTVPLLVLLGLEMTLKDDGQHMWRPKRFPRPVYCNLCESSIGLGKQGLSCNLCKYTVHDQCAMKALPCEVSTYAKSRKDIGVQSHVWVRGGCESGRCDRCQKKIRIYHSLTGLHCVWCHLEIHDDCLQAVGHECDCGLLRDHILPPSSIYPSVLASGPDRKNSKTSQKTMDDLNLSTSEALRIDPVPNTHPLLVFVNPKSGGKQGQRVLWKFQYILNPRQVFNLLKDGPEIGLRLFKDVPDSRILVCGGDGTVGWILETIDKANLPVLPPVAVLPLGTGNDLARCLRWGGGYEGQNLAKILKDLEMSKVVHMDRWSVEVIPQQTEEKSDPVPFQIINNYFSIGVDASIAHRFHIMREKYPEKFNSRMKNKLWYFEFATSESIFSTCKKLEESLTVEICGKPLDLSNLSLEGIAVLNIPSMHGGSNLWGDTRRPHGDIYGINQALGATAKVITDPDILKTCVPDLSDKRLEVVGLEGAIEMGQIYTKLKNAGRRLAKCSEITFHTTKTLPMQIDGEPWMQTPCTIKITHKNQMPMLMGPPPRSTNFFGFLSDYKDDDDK
For orientation: In ADP-Glo the light output rises with the ADP produced.

`Cc1ccc2c(C(=O)CN3CCN(C(=O)c4ccco4)CC3)c(C)[nH]c2c1` [AMB639752]: the “inhibitory activity on DGKα” value in experiment [1] was “micromolar”.
Take `O=C1/C(=C\C=C\c2ccco2)SC(=S)N1NS(=O)(=O)c1ccccc1` [CU-3]: the “inhibitory activity on DGKα” value in experiment [1] is listed as “sub-micromolar”.
In the case of `Cn1c(=O)c(C(N)=O)c(N2CCC3(CN(c4ccc(F)cc4)C3)C2)c2ccccc21` [Example 27, 4-[2-(4-fluorophenyl)-2,6-diazaspiro[3.4]octan-6-yl]-1-methyl-2-oxo-1,2-dihydroquinoline-3-carboxamide], the half-maximal inhibitory concentration (IC50) (usually the concentration needed to halve the response being measured) in experiment [2] amounted to 158 nM.
The same measure, in the same setting: to `CN(C)c1ccc(N2CC3(CCN(c4c(C(N)=O)c(=O)n(C)c5ccccc45)C3)C2)cc1` [Example 28, 4-{2-[4-(dimethylamino)phenyl]-2,6-diazaspiro[3.4]octan-6-yl}-1-methyl-2-oxo-1,2-dihydroquinoline-3-carboxamide] belongs 1720 nM; to `Cn1c(=O)c(C#N)c(N2CCC3(CN(c4ccc(OC(F)(F)F)cc4)C3)C2)c2ccc(Br)cc21` [Example 29, 7-bromo-1-methyl-2-oxo-4-{2-[4-(trifluoromethoxy)phenyl]-2,6-diazaspiro[3.4]octan-6-yl}-1,2-dihydroquinoline-3-carbonitrile], 46 nM.
On the same count and under the same terms, to `Cn1c(=O)c(C#N)c(N2CCC3(CN(c4ccc(Cl)cc4)C3)C2)c2ccc(Br)cc21` [Example 30, 7-bromo-4-[2-(4-chlorophenyl)-2,6-diazaspiro[3.4]octan-6-yl]-1-methyl-2-oxo-1,2-dihydroquinoline-3-carbonitrile] belongs 75 nM; to `CN1CCN(c2ccc3c(N4CCC5(CCN(c6cccc(OC(F)(F)F)c6)C5)CC4)c(C#N)c(=O)n(C)c3c2)CC1` [Example 31, 1-methyl-7-(4-methylpiperazin-1-yl)-2-oxo-4-{2-[3-(trifluoromethoxy)phenyl]-2,8-diazaspiro[4.5]decan-8-yl}-1,2-dihydroquinoline-3-carbonitrile], 645 nM; to `COCCN(C)c1ccc2c(N3CCC4(CCN(c5cccc(OC(F)(F)F)c5)C4)CC3)c(C#N)c(=O)n(C)c2c1` [Example 32, 7-[(2-methoxyethyl)(methyl)amino]-1-methyl-2-oxo-4-{2-[3-(trifluoromethoxy)phenyl]-2,8-diazaspiro[4.5]decan-8-yl}-1,2-dihydroquinoline-3-carbonitrile], 38 nM.
On the same count and under the same terms, to `CN1CCN(c2ccc3c(N4CCC5(CCN(c6cccc(Cl)c6)C5)CC4)c(C#N)c(=O)n(C)c3c2)CC1` [Example 33, 4-[2-(3-chlorophenyl)-2,8-diazaspiro[4.5]decan-8-yl]-1-methyl-7-(4-methylpiperazin-1-yl)-2-oxo-1,2-dihydroquinoline-3-carbonitrile] belongs 1170 nM.
In the case of `COCCN(C)c1ccc2c(N3CCC4(CCN(c5cccc(Cl)c5)C4)CC3)c(C#N)c(=O)n(C)c2c1` [Example 34, 4-[2-(3-chlorophenyl)-2,8-diazaspiro[4.5]decan-8-yl]-7-[(2-methoxyethyl)(methyl)amino]-1-methyl-2-oxo-1,2-dihydroquinoline-3-carbonitrile], the IC50 in experiment [2] stood at 19 nM.
Regarding `COCCN(C)c1ccc2c(N3CCC4(CCN(c5cccc(OC(F)(F)F)c5)C4)CC3)c(C(N)=O)c(=O)n(C)c2c1` [Example 35, 7-[(2-methoxyethyl)(methyl)amino]-1-methyl-2-oxo-4-{2-[3-(trifluoromethoxy)phenyl]-2,8-diazaspiro[4.5]decan-8-yl}-1,2-dihydroquinoline-3-carboxamide], in experiment [2], the IC50 came out at 68 nM.
Turning to `COCCN(C)c1ccc2c(N3CCC4(CCN(c5cccc(Cl)c5)C4)CC3)c(C(N)=O)c(=O)n(C)c2c1` [Example 36, 4-[2-(3-chlorophenyl)-2,8-diazaspiro[4.5]decan-8-yl]-7-[(2-methoxyethyl)(methyl)amino]-1-methyl-2-oxo-1,2-dihydroquinoline-3-carboxamide], the IC50 in experiment [2] is 49 nM.

The values above are taken from US20230064809A1, “SUBSTITUTED AMINOQUINOLONES AS DGKALPHA INHIBITORS FOR IMMUNE ACTIVATION” (Bayer Aktiengesellschaft, priority 2019, published 2023).
